Experimental data from patent US9771369B2, “Compounds and methods for kinase modulation, and indications therefor” (Plexxikon Inc., priority 2014, dated 2017).

How the values were obtained:
[1] = test system: BaF3-FL KIT D816V or BaF3-FL KIT V560G/D816V cell line; assay: Cell-based assays of c-Kit mutant kinase activity (cell proliferation, ATPlite); settings: at least one of the c-kit cell assays of Example 7
Procedure: The c-Kit mutant D816V inhibitors were assessed using an engineered BaF3-FL KIT D816V or BaF3-FL KIT V560G/D816V cell line. The BaF3-FL KIT D816V cell lines were created by introduction of KIT mutant (D816V) full length constructs that render the cells dependent on the introduced kinase for growth. Inhibitors of c-Kit mutant D816V kinase reduce or eliminate the mediated c-kit mutant D816V kinase activation, resulting in reduced cell proliferation of the BaF3-FL Kit mutant D816V cells. This inhibition is measured by the effect of compound concentration on cell growth to assess IC50 values. BaF3-FL KIT D816V cells were seeded at 1×10^4 cells per well of a 96 well cell culture plate in 50 μl of cell culture medium of RPMI Medium 1× (Invitrogen #11875-093) supplemented with 10% FBS (Invitrogen #10438), 1% Non Essential Amino Acids (Invitrogen #11140), 1% Penicillin Streptomycin (Invitrogen #15140), 1% L-Glutamine (Invitrogen #25030-081). Compounds were dissolved in DMSO at a concentration of 5 mM and were serially diluted 1:3 for a total of eight points and added to the cells to a final maximum concentration of 10 μM in 100 μl cell culture medium (final concentration 0.2% DMSO). Cells were also treated with Dasatinib as a positive control. The cells were incubated at 37° C., 5% CO2 for three days. ATPlite Buffer (Perkin Elmer #6016739) and substrate were equilibrated to room temperature, and enzyme/substrate Recombinant Firefly Luciferase/D-Luciferin was reconstituted. The cell plates were equilibrated to room temperature for 30 minutes, then lysed by addition of 25 μL per well of the ATPlite Reagent. The plate was mixed for 5 minutes on a plate shaker to lyse the cells. The plates were read on a Tecan Safire using Luminescence protocol modified to read 0.1s per well. The luminescence reading assesses the ATP content, which correlates directly with cell number such that the reading as a function of compound concentration is used to determine the IC50 value.
Plasmids P75635 and P75565 were engineered for mammalian cell expression. In both plasmids, full-length human v-kit Hardy-Zuckerman 4 feline sarcoma viral oncogene homolog gene (NCBI accession NM_000222, KIT, residues M1-V976) was subcloned into the pCI-Neo vector (Promega E1841). Plasmid P75635 contains the mutation of residue Aspartic acid 816 to Valine. Plasmid P75565 contains the double mutation of residues Valine 560 to Glycine and Aspartic acid 816 to Valine. The pCI-neo Mammalian Expression Vector carries the human cytomegalovirus (CMV) immediate-early enhancer/promoter region to promote constitutive expression of KIT and contains the neomycin phosphotransferase gene, a selectable marker.
It is understood that the results of these assays may vary as assay conditions are varied. Inhibition levels determined under the conditions described herein represent a relative activity for the compounds tested under the specific conditions employed. The cell based assays are likely to show variability due to the complexity of the system and the sensitivity thereof to any changes in the assay conditions. […] In some instances, the compounds were not tested in all of the assays, or assay results were not valid.

[2] = target: c-kit mutant D816V (Homo sapiens (Human), UniProt P10721, D816V/DEL694-753); assay: c-Kit mutant D816V biochemical assay (AlphaScreen kinase activity)
Procedure: The c-kit mutant D816V (or kinase domain thereof) is an active kinase in AlphaScreen. IC50 values are determined with respect to inhibition of c-Kit mutant D816V kinase activity, where inhibition of phosphorylation of a peptide substrate is measured as a function of compound concentration. Compounds to be tested were dissolved in DMSO to a concentration of 30 mM. These were diluted […] of DMSO (4 mM) and 1 μl was added to an assay plate. These were then serially diluted 1:3 (50 μl to […] DMSO) for a total of 8 points. Plates were prepared such that each kinase reaction is […] in 1× kinase buffer (25 mM HEPES, pH 7.2, 8 mM MgCl2, 2 mM MnCl2, 50 mM NaCl, 0.01% Brij, 1 mM DTT, 0.01% BSA), 5% DMSO and 10 μM ATP. Substrate was 30 nM biotin-(E4Y)10 (EMD Millipore, Cat#12-440). C-kit mutant D816V kinase was at 0.75 ng per sample. After incubation of the kinase reaction for 30 minutes at room temperature, 5 μl of donor beads (Streptavidin coated beads (Perkin Elmer Life Science) final concentration 7.5 μg/ml) in stop buffer (25 mM Hepes pH 7.5, 100 mM EDTA, 0.01% BSA) was added, the sample was mixed and incubated for 30 minutes at room temperature before adding […] of acceptor beads (PY30 coated beads (Perkin Elmer Life Science) final concentration 7.5 μg/ml) in stop buffer. The samples were incubated for 60 minutes at room temperature and the signal per well was read on EnVision reader. Phosphorylated substrate results in binding of the PY30 antibody and association of the donor and acceptor beads such that signal correlates with kinase activity. The signal vs. compound concentration was used to determine the IC50.
Recombinant c-kit mutant D816V (residues 551-934, kinase insertion domain residues 694-753 deleted) with a 6×-histidine N-terminal tag (SEQ ID NO: 3) was expressed in E. coli Arctic Express (DE3) RIL (Stratagene). Cells were grown in Terrific Broth (TB) media to an OD600 of 0.6 at 37° C. at which temperature was reduced to 10° C., protein was induced with 1.0 mM IPTG for 18 hours and harvested by centrifugation at 8000×g for 30 minutes. Cells were re-suspended in 0.1M KPO4 pH 8.0, 250 mM NaCl, 10% Glycerol, 0.75% NP-40, 25 mM Imidazole, 5 mM BME with 0.2 mg/ml Lysosyme, 2.0 mM PMSF, 25 μg/ml DNAse I, incubated in ice for 30 minutes and lyzed with a cell disruptor (MicroFluidics). The lysate was clarified by centrifugation at 30,000×g for 2 hours. The protein was captured with Talon resin (Clontech). Contaminating proteins were washed off with 25 mM Tris-HCl pH 8.3, 250 mM NaCl, 15% Glycerol, 1% Triton X-100, and protein eluted using 100 mM EDTA. The protein was further purified using Gel Filtration column 26/600 Superdex 300 (GE) in 50 mM Tris-HCl , pH 8.0, 250 mM NaCl, 15% Glycerol, 5 mM BME. The protein was aliquoted and flash-frozen in liquid Nitrogen.

Chain of c-kit mutant D816V (P10721 other isoform, or with tags, fused parts or gaps D816V/del 694-753): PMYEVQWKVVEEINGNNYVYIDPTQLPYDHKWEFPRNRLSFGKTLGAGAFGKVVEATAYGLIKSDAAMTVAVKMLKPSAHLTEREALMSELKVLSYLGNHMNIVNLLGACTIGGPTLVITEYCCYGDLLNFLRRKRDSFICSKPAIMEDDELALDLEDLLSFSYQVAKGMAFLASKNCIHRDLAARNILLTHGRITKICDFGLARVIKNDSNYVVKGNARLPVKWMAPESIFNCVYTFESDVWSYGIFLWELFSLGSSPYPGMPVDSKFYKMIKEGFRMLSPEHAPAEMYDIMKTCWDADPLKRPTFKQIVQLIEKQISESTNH

Compound | IC50 [1] [nM] | IC50 [2] [µM]
Cc1nc(C2CCN(c3ncnc4[nH]c(-c5ccc(F)cc5)cc34)CC2)[nH]c1-c1ccc2c(c1)OC(F)(F)O2 [P-3109, 4-[4-[5-(2,2-difluoro-1,3-benzodioxol-5-yl)-4-methyl-1H-imidazol-2-yl]-1-piperidyl]-6-(4-fluorophenyl)-7H-pyrrolo[2,3-d]pyrimidine] | < 10000 | 0.0001 to 1
Cc1nc(C2CCN(c3ncnc4[nH]c(-c5ccc(C#N)cc5)cc34)CC2)[nH]c1-c1ccc2c(c1)OC(F)(F)O2 [P-3110, 4-[4-[4-[5-(2,2-difluoro-1,3-benzodioxol-5-yl)-4-methyl-1H-imidazol-2-yl]-1-piperidyl]-7H-pyrrolo[2,3-d]pyrimidin-6-yl]benzonitrile] | < 10000 | 0.0001 to 1
COc1cc(-c2cc3c(N4CCC(c5nc(C)c(-c6ccc7c(c6)OC(F)(F)O7)[nH]5)CC4)ncnc3[nH]2)ccn1 [P-3111, 4-[4-[5-(2,2-difluoro-1,3-benzodioxol-5-yl)-4-methyl-1H-imidazol-2-yl]-1-piperidyl]-6-(2-methoxy-4-pyridyl)-7H-pyrrolo[2,3-d]pyrimidine] | < 10000 | 0.0001 to 1
COc1ccc(-c2[nH]c(C3CCN(c4ncnc5[nH]c(-c6ccc(C#N)cc6)cc45)CC3)nc2C)cn1 [P-3112, 4-[4-[4-[5-(6-methoxy-3-pyridyl)-4-methyl-1H-imidazol-2-yl]-1-piperidyl]-7H-pyrrolo[2,3-d]pyrimidin-6-yl]benzonitrile] | < 10000 | 0.0001 to 1
Cc1nc(C2CCN(c3ncnc4[nH]c(-c5ccc(C#N)cc5)cc34)CC2)[nH]c1-c1ccc(OC(F)F)cc1 [P-3113, 4-[4-[4-[5-[4-(difluoromethoxy)phenyl]-4-methyl-1H-imidazol-2-yl]-1-piperidyl]-7H-pyrrolo[2,3-d]pyrimidin-6-yl]benzonitrile] | < 10000 | 0.0001 to 1
COc1cccc(-c2[nH]c(C3CCN(c4ncnc5[nH]c(-c6cnn(C(F)F)c6)cc45)CC3)nc2C)c1 [P-3114, 6-[1-(difluoromethyl)pyrazol-4-yl]-4-[4-[5-(3-methoxyphenyl)-4-methyl-1H-imidazol-2-yl]-1-piperidyl]-7H-pyrrolo[2,3-d]pyrimidine] | < 10000 | 0.0001 to 1
Cc1nc(C2CCN(c3ncnc4[nH]c(-c5cnn(C(F)F)c5)cc34)CC2)[nH]c1-c1ccc(OC(F)F)cc1 [P-3115, 4-[4-[5-[4-(difluoromethoxy)phenyl]-4-methyl-1H-imidazol-2-yl]-1-piperidyl]-6-[1-(difluoromethyl)pyrazol-4-yl]-7H-pyrrolo[2,3-d]pyrimidine] | < 10000 | 0.0001 to 1
Cc1nc(C2CCN(c3ncnc4[nH]c(-c5cnn(C(F)F)c5)cc34)CC2)[nH]c1-c1ccc(OC(F)(F)F)cc1 [P-3116, 6-[1-(difluoromethyl)pyrazol-4-yl]-4-[4-[4-methyl-5-[4-(trifluoromethoxy)phenyl]-1H-imidazol-2-yl]-1-piperidyl]-7H-pyrrolo[2,3-d]pyrimidine] | < 10000 | 0.0001 to 1
COc1cc(-c2cc3c(N4CCC(c5nc(C)c(-c6ccc(C)s6)[nH]5)CC4)ncnc3[nH]2)ccn1 [P-3117, 6-(2-methoxy-4-pyridyl)-4-[4-[4-methyl-5-(5-methyl-2-thienyl)-1H-imidazol-2-yl]-1-piperidyl]-7H-pyrrolo[2,3-d]pyrimidine] | < 10000 | 0.0001 to 1
Cc1ccc(-c2[nH]c(C3CCN(c4ncnc5[nH]c(-c6ccc(F)cc6)cc45)CC3)nc2C)s1 [P-3118, 6-(4-fluorophenyl)-4-[4-[4-methyl-5-(5-methyl-2-thienyl)-1H-imidazol-2-yl]-1-piperidyl]-7H-pyrrolo[2,3-d]pyrimidine] | < 10000 | 0.0001 to 1
Cc1nc(C2CCN(c3ncnc4[nH]c(-c5ccc(F)cc5)cc34)CC2)[nH]c1-c1ccc(Cl)s1 [P-3119, 4-[4-[5-(5-chloro-2-thienyl)-4-methyl-1H-imidazol-2-yl]-1-piperidyl]-6-(4-fluorophenyl)-7H-pyrrolo[2,3-d]pyrimidine] | < 10000 | 0.0001 to 1
Cc1cc2c(N3CCC(c4nc(C)c(-c5ccc6c(c5)OCO6)[nH]4)CC3)ncnc2[nH]1 [P-3120, 4-[4-[5-(1,3-benzodioxol-5-yl)-4-methyl-1H-imidazol-2-yl]-1-piperidyl]-6-methyl-7H-pyrrolo[2,3-d]pyrimidine] | < 10000 | 1 to 10
Cc1cc2c(N3CCC(c4nc(C)c(-c5ccc6c(c5)OCCO6)[nH]4)CC3)ncnc2[nH]1 [P-3121, 4-[4-[5-(2,3-dihydro-1,4-benzodioxin-6-yl)-4-methyl-1H-imidazol-2-yl]-1-piperidyl]-6-methyl-7H-pyrrolo[2,3-d]pyrimidine] | < 10000 | 0.0001 to 1
Cc1nn(C)cc1-c1cc2c(N3CCC(c4nc(C)c(-c5ccc(OC(F)(F)F)cc5)[nH]4)CC3)ncnc2[nH]1 [P-3122, 6-(1,3-dimethylpyrazol-4-yl)-4-[4-[4-methyl-5-[4-(trifluoromethoxy)phenyl]-1H-imidazol-2-yl]-1-piperidyl]-7H-pyrrolo[2,3-d]pyrimidine] | < 10000 | 0.0001 to 1
COc1cccc(-c2[nH]c(C3CCN(c4ncnc5[nH]c(-c6ccnc(OC)c6)cc45)CC3)nc2C(F)(F)F)c1 [P-3123, 4-[4-[5-(3-methoxyphenyl)-4-(trifluoromethyl)-1H-imidazol-2-yl]-1-piperidyl]-6-(2-methoxy-4-pyridyl)-7H-pyrrolo[2,3-d]pyrimidine] | < 10000 | 0.0001 to 1
COc1cccc(-c2[nH]c(C3CCN(c4ncnc5[nH]c(-c6ccc(C#N)cc6)cc45)CC3)nc2C(F)(F)F)c1 [P-3124, 4-[4-[4-[5-(3-methoxyphenyl)-4-(trifluoromethyl)-1H-imidazol-2-yl]-1-piperidyl]-7H-pyrrolo[2,3-d]pyrimidin-6-yl]benzonitrile] | < 10000 | 0.0001 to 1
